In patent publication US9121026B2 (priority 2004, dated 2015):

Assays:
Format in all cases: cell-based, Saccharomyces cerevisiae
[1] = test system: RE700A Δpdr1 tok1::PPDR5-HXT7; assay: Growth inhibition of RE700A Δpdr1 tok1::PPDR5-HXT7 by 2-DG; conditions: RE700A Δpdr1 tok1::PPDR5-HXT7, maltose, 20 h 28° C.
Protocol: (A) Growth inhibition of RE700A i PPDR5-HXT7 (IT[PDR]), RE700A Δpdr1 tok1::PPDR5-HXT7, RE700A Δpdr3 tok1::PPDR5-HXT7 and RE700A Δpdr1,pdr3 tok1::PPDR5-HXT7 at increasing 2-DG concentrations. RE700A i PPDR5-HXT7 (IT[PDR]), RE700A Δpdr1 tok1::PPDR5-HXT7, RE700A Δpdr3 tok1::PPDR5-HXT7 and RE700A Δpdr1,pdr3 tok1::PPDR5-HXT7 were incubated 20 h at 28° C. with Maltose (2% (w/v)) as the sole carbon source and 2-DG concentrations as indicated. The optical density was measured at 600 nm every 15 minutes and the integral under the growth curve was calculated. Inhibition of growth caused by 2-DG is shown in percent. The growth of the strain RE700A tok1::PPDR5-HXT7 (IT[PDR]) was inhibited by 50% at 0.02% (w/v) 2-DG. Growth of the strains RE700A Δpdr1 tok1::PPDR5-HXT7 and RE700A Δpdr3 tok1::PPDR5-HXT7 was inhibited by 50% at 0.026% (w/v) 2-DG.
All strains expressing HXT7 were tested for sensitivity to 2-DG. The strains expressing GFP under the control of PPDR5 were additionally analysed for GFP fluorescence in comparison to RE700Ae PPDR5-GFP (strain CQ[PDR]).

[2] = test system: RE700A tok1::PPDR5long-HXT7; assay: Growth of RE700A tok1::PPDR5long-HXT7 in the presence of 2-DG; conditions: RE700A tok1::PPDR5long-HXT7, liquid media, 20 h 28° C.
Protocol: (§1) (B) Relative growth of RE700A tok1::PPDR5long-HXT7, RE700A Δpdr1 tok1::PPDR5long-HXT7, RE700A Δpdr3 tok1::PPDR5long-HXT7 and RE700A Δpdr1,3 tok1::PPDR5long-HXT7 in the presence of 2-DG. Cells were incubated for 20 h at 28° C. with 2-DG at different concentrations. […] The standard error of the mean (n=5) is indicated.

[3] = test system: RE700A Δpdr1 tok1::PPDR5long-HXT7; assay: Growth of RE700A Δpdr1 tok1::PPDR5long-HXT7 in the presence of 2-DG; conditions: RE700A Δpdr1 tok1::PPDR5long-HXT7, 20 h 28° C.
Protocol: as §1

[4] = test system: RE700A e PCDR1-HXT7 (ET[CDR1]); assay: Growth inhibition of ET[CDR1] by 2-DG; conditions: liquid media, 20 h 28° C., compared to growth in the absence of 2-DG
Protocol: FIG. 6: Growth inhibition of RE700A, ET[CDR1] and ET[CDR2] in the presence of increasing 2-DG concentrations after 20 h incubation at 28° C. for in liquid medium. RE700A, ET[CDR1] and ET[CDR2] were incubated 20 h at 28° C. with maltose (2% (w/v)) as the sole carbon source in the presence of increasing 2-DG concentrations in liquid medium. The optical density was measured at 600 nm semi-continuously every 15 minutes and the integral under the growth curve was calculated. Inhibition of growth is shown in percent compared to growth in the absence of 2-DG. Growth of ET[CDR1] was inhibited by 92% at a 2-DG concentration in liquid media of 0.05% (w/v), by 94% at a 2-DG concentration in liquid media of 0.075% (w/v), by 93% at a 2-DG concentration in liquid media of 0.1% (w/v) and by 95% at a 2-DG concentration of 0.2% (w/v). Growth of ET[CDR2] was inhibited by 50% at a 2-DG concentration in liquid media of 0.05% (w/v), by 70% at a 2-DG concentration in liquid media of 0.075% (w/v), by 70% at a 2-DG concentration in liquid media of 0.1% (w/v) and by 84% at a 2-DG concentration of 0.2% (w/v).
(1) Episomal screening system for inhibitors of PCDR1: S. cerevisiae strain RE700A was transformed with plasmids pY-PCDR1-HXT7 and pY-PCDR1-GFP yielding strains ET[CDR1] and CQ[CDR1] (for details see Examples 1 and 2, for the complete genotype refer to Table 1). The inhibition of growth of ET[CDR1] by 2-DG was tested. The growth of this strain was inhibited to more than 90% at a 2-DG concentration of 0.05% (w/v) (FIG. 6). To screen for inhibitors of the PCDR1, the test strain ET[CDR1] can be incubated in selective YNB medium with 2% (w/v) maltose as the carbon source and 0.05% (w/v) 2-DG. Under these non-permissive conditions the growth of the test strain ET[CDR1] was inhibited when PCDR1 was active (FIG. 6).

[5] = test system: RE700A i PCDR1-HXT7 (IT[CDR1]); assay: Growth inhibition of IT[CDR1] by 2-DG; conditions: 20 h 28° C., maltose, regarding growth in the absence of 2-DG
Protocol: FIG. 7: Growth inhibition of RE700A and IT[CDR1] by 2-DG. RE700A and IT[CDR1] were incubated for 20 h at 28° C. with maltose (2% (w/v)) as the sole carbon source and increasing 2-DG concentrations as indicated. The optical density was measured at 600 nm every 15 minutes and the integral under the growth curve was calculated. Inhibition of growth is shown in percent regarding growth in the absence of 2-DG. Growth of IT[CDR1] was inhibited by 45% at a 2-DG concentration of 0.01% (w/v), by 91% at a 2-DG concentration of 0.03% (w/v), by 92% at a 2-DG concentration of 0.05% (w/v), by 92% at a 2-DG concentration of 0.1% (w/v), by 94% at a 2-DG concentration of 1% (w/v), by 95% at a 2-DG concentration of 2% (w/v) and by 95% at a 2-DG concentration of 3% (w/v).
(3) Integrated screening system for inhibitors of PCDR1: S. cerevisiae strain RE700A was genetically modified as described in Example 1 and 2 to yield strain IT[CDR1], chromosomally expressing HXT7 under the control of the promoter of CDR1 (PCDR1) (for the complete genotype see Table 1). The inhibition of growth of IT[CDR1] by 2-DG was tested. The growth of this strain was inhibited by more than 90% at a 2-DG concentration of 0.03% (w/v) (FIG. 7)

SMILES: O=CC[C@@H](O)[C@H](O)[C@H](O)CO [2-DG, 2-deoxy-glucose]
- 2-DG concentration for 50% growth inhibition [1]: 0.026 % (w/v)
- 2-DG concentration for 50% growth inhibition [2]: 0,025 % (w/v)
- 2-DG concentration for 50% growth inhibition [3]: 0.068 % (w/v)
- Inhibition of growth ([4]; 0.075% (w/v) 2-DG): 94%
- Inhibition of growth ([4]; 0.1% (w/v) 2-DG): 93%
- Inhibition of growth ([4]; 0.2% (w/v) 2-DG): 95%
- Inhibition of growth ([5]; 0.01% (w/v) 2-DG): 45%
- Inhibition of growth ([5]; 0.05% (w/v) 2-DG): 92%
- Inhibition of growth ([5]; 0.1% (w/v) 2-DG): 92%
- Inhibition of growth ([5]; 1% (w/v) 2-DG): 94%
- Inhibition of growth ([5]; 2% (w/v) 2-DG): 95%
- Inhibition of growth ([5]; 3% (w/v) 2-DG): 95%
